Experimental data: patent publication US20080311233A1, “Naturally Occurring Phenolic Substances Useful as Pesticides” (priority 2004, published 2008)

Assays:
[1] = cited from earlier work
[2] = Solubility / miscibility in water and formulating agents; format: physicochemical

- solubility in polyethylene glycol ([2]; polyethylene glycol): considerably soluble
- solubility in tetra ethyl ortho silicate ([2]; tetra ethyl ortho silicate): considerably soluble
SMILES: COc1cc(C=O)ccc1O [Vanillin]
- solubility in water ([1]; according to the Merck index): 1 gram in 100 ml water
- solubility in alcohol ([1]; compared with water, Merck index): more soluble
